# Assays:
# SJL mice with acute EAE = assay: Mouse acute EAE model, daily clinical scoring; assay type: in vivo; details: Mesopram 9 mg/kg, Prednisolone 2.5 mg/kg, IP twice daily
# GAL-4 DBS = details: read-out: Kd for binding; cited from earlier work
Compound,"clinical scores of EAE, positive controls (SJL mice with acute EAE; first study)","clinical scores of EAE, positive controls (SJL mice with acute EAE; second study)",Kd (GAL-4 DBS) [nM]
"CCCOc1cc([C@]2(C)CNC(=O)O2)ccc1OC [Mesopram, reference compound]",significantly decreased clinical scores,significantly decreased clinical scores,
GAL-4 residues 1-100: N-terminal DNA binding fragment of yeast GAL-4 protein,,,3
"C[C@]12C=CC(=O)C=C1CC[C@@H]1[C@@H]2[C@@H](O)C[C@@]2(C)[C@H]1CC[C@]2(O)C(=O)CO [Prednisolone, reference compound]",significantly decreased clinical scores,significantly decreased clinical scores,
